Measured values: US20230172849A1, “INHALED STATINS FOR TREATMENT OF VIRAL RESPIRATORY DISEASES” (priority 2020, published 2023)
Entries after “also recorded” stand apart in the source; their conditions may differ. Like-named read-outs stand apart in the source and are kept apart here.

How the values were obtained:
[1] = target: SARS-CoV-2 Spike S1 (RBD) (Severe acute respiratory syndrome coronavirus 2, UniProt P0DTC2); assay: biochemical; format: binding
[2] = system: SARS-CoV-2; format: cell-based
[3] = system: SARS-CoV-2; assay: SARS-CoV-2 viral load by RT-qPCR in Calu-3 supernatant; format: cell-based
[4] = system: SARS-CoV-2-induced cytokine and chemokine production; format: cell-based; details: Calu-3 cells; Cases A-C
[5] = system: SARS-CoV-2; assay: hamster model of SARS-CoV-2 infection, intranasally inhaled treatment; format: in vivo
[6] = system: SARS-CoV-2; assay: combination therapy, viral load by RT-PCR (ORF1ab gene) in Calu-3 cells; format: cell-based; parameters: key to enhanced decrease of viral load, combination vs two single agents: Each combination that showed an enhanced decrease of viral load as compared with the two single agents is denoted by “E”; Combinations that showed a slight trend towards an enhanced decrease of viral load as compared with the two single agents is denoted by “(e)”; —
[7] = system: Calu-3 cells; details: Calu-3 cells or Vero cells

## O=C([O-])C[C@H](O)C[C@H](O)/C=C/c1c(C2CC2)nc2ccccc2c1-c1ccc(F)cc1.O=C([O-])C[C@H](O)C[C@H](O)/C=C/c1c(C2CC2)nc2ccccc2c1-c1ccc(F)cc1.[Ca+2] [INS103, Pitavastatin Calcium]
[1]; MST binding assay
  binding to SARS-COV-2 S-protein (in words): bind with SARS-COV-2 S-protein at nanomolar (nM) concentrations
[1]; Table 1, MST, 25 nM labelled SARS-CoV-2 S1, read-out: Affinity
  Kd: 678 to 1000 nM
[1]; Table 1, binding to SARS-CoV-2 S1
  Remarks: Good binding
[1]; Table 1, signal to noise ratio of MST binding
  S/N: 14.4-17.3
[1]; Table 2, read-out: Affinity (nM) of binding to SARS-COV2 Spike protein
  Kd: 678 to 1000 nM
[2]; Calu-3 cells
  SARS-CoV-2-induced loss of cell viability in Calu-3 cells (overall conclusion): inhibited SARS-CoV-2-induced loss of cell viability
[2]; Case A: compound added 1 h after infection, 72 h contact
  protection against virus-induced loss of cell viability: dose-dependent protection
[2]; Case A: compound added 1 h after infection, 72 h contact, 0.2 uM
  Average (percent cell viability): 4.83%
[2]; Case A: compound added 1 h after infection, 72 h contact, 1 uM
  Average (percent cell viability): 9.66%
[2]; Case A: compound added 1 h after infection, 72 h contact, 5 uM
  Average (percent cell viability): 17.37%
[2]; Case B: compound added 24 h after infection, 48 h contact, 0.2 uM
  Average (percent cell viability): 0.5243%
[2]; Case B: compound added 24 h after infection, 48 h contact, 1 uM
  Average (percent cell viability): 1.724%
[2]; Case B: compound added 24 h after infection, 48 h contact, 5 uM
  Average (percent cell viability): −3.025%
[2]; Case C: compound added 48 h after infection, 24 h contact, 0.2 uM
  Average (percent cell viability): 1.847%
[2]; Case C: compound added 48 h after infection, 24 h contact, 1 uM
  Average (percent cell viability): −1.192%
[2]; Case C: compound added 48 h after infection, 24 h contact, 5 uM
  Average (percent cell viability): −1.208%
[2]; Case D: pre-treated 6 h, then infected 72 h, 0.2 uM
  Average (percent cell viability): 34.83%
[2]; Case D: pre-treated 6 h, then infected 72 h, 1 uM
  Average (percent cell viability): 32.21%
[2]; Case D: pre-treated 6 h, then infected 72 h, 5 uM
  Average (percent cell viability): 28.3%
[2]; Case D: pre-treated 6 hours, then infected 72 hours
  protection against virus-induced loss of cell viability: dose-independent protection
[2]; Case D: pre-treated 6 hours, then infected 72 hours, listed as INS-103
  protection against virus-induced loss of cell viability: inhibit SARS-CoV-2-induced loss of cell viability
[2]; Case E: pre-treated 24 h, then infected 72 h, 0.2 uM
  Average (percent cell viability): −3.00%
[2]; Case E: pre-treated 24 h, then infected 72 h, 1.0 uM
  Average (percent cell viability): −0.20%
[2]; Case E: pre-treated 24 h, then infected 72 h, 5.0 uM
  Average (percent cell viability): 46.71%
[2]; Case E: pre-treated 24 hours, then infected 72 hours, high and medium doses of INS102, high dose of INS103
  protection against virus-induced loss of cell viability: dose-dependent protection
[2]; Case F: 1 hour, then virus 72 hours, high dose of INS102, all doses of INS103
  anti-viral protection (cell viability): dose-dependent anti-viral protection
[2]; Case F: compound 1 h before infection (coinc 1 h), then virus 72 h, 0.2 uM
  Average (percent cell viability): 9.881%
[2]; Case F: compound 1 h before infection (coinc 1 h), then virus 72 h, 1 uM
  Average (percent cell viability): 15.82%
[2]; Case F: compound 1 h before infection (coinc 1 h), then virus 72 h, 5 uM
  Average (percent cell viability): 19.96%
[3]; Cases A-C, 5, 1, 0.2 μM
  SARS-CoV-2 viral load: dose-dependently reduced viral load
[3]; high dose 5 uM
  SARS-CoV-2 viral load: reduced SARS-CoV-2 viral load
[4]
  SARS-CoV-2-induced cytokine and chemokine production: inhibited
[5]; 3 mg/kg i.n., Day 1
  viral titers in throat swabs: reduced viral titers
[5]; 3 mg/kg i.n., Day 3 post-infection
  viral titer in the nasal swabs and tracheas: reduction of viral titer
[5]; 3 mg/kg i.n., Day 3 post-infection, R4 samples
  viral titer in lung samples: significant decrease in viral titer
[5]; 3 mg/kg i.n., day 6, virus-infected controls ˜50%
  percentage of affected lung (inflammation): ~30%
[5]; 3 mg/kg i.n., days 2 or 3
  viral titers in throat swabs (reduction trend): not observed
[5]; 3 mg/kg i.n., vs DPBS or control vehicle (DV)
  viral titers from the nasal swabs: trend of reduced viral titers
[5]; 3 mg/kg i.n., vs controls
  lung inflammation (histopathology): reduction in acute ling inflammation; also recorded: mild/moderate reduction in lung inflammation
[5]; pitavastatin 3 mg/kg i.n., D-2 to 5, statistical significance at day 4
  weight loss of infected hamsters: less weight loss
[6]; FIGS. 30, 31, statin and SARS-CoV-2 (MOI 0.01) mixed 1 hour at room temperature, 24 hours post infection
  decrease in viral load, combination with remdesivir or dexamethasone vs monotherapies: enhanced
[6]; statin 0.2 μM + Dex 0.1 μM
  enhanced decrease of viral load, combination vs two single agents: —
[6]; statin 0.2 μM + Dex 1 μM
  enhanced decrease of viral load, combination vs two single agents: (e)
[6]; statin 0.2 μM + Dex 10 μM
  enhanced decrease of viral load, combination vs two single agents: —
[6]; statin 0.2 μM + Remde 1
  enhanced decrease of viral load, combination vs two single agents: (e)
[6]; statin 0.2 μM + Remde 10
  enhanced decrease of viral load, combination vs two single agents: (e)
[6]; statin 0.2 μM + Remde 100
  enhanced decrease of viral load, combination vs two single agents: (e)
[6]; statin 1 μM + Dex 0.1 μM
  enhanced decrease of viral load, combination vs two single agents: —
[6]; statin 1 μM + Dex 1 μM
  enhanced decrease of viral load, combination vs two single agents: enhancement in the decrease of viral load and E
[6]; statin 1 μM + Dex 10 μM
  enhanced decrease of viral load, combination vs two single agents: —
[6]; statin 1 μM + Remde 1
  enhanced decrease of viral load, combination vs two single agents: —
[6]; statin 1 μM + Remde 10
  enhanced decrease of viral load, combination vs two single agents: —
[6]; statin 1 μM + Remde 100
  enhanced decrease of viral load, combination vs two single agents: —
[6]; statin 5 μM + Dex 0.1 μM
  enhanced decrease of viral load, combination vs two single agents: E
[6]; statin 5 μM + Dex 1 μM
  enhanced decrease of viral load, combination vs two single agents: —
[6]; statin 5 μM + Dex 10 μM
  enhanced decrease of viral load, combination vs two single agents: —
[6]; statin 5 μM + Remde 1
  enhanced decrease of viral load, combination vs two single agents: —
[6]; statin 5 μM + Remde 10
  enhanced decrease of viral load, combination vs two single agents: —
[6]; statin 5 μM + Remde 100
  enhanced decrease of viral load, combination vs two single agents: —
[7]
  cytotoxicity: not cytotoxic
